We go through 13 compounds from ChEMBL document CHEMBL4020745 (Bioorg Med Chem Lett, 2017).

Common to all, as to format: cell-based
In data set [1] the target is T1, Peroxisome proliferator-activated receptor gamma (Homo sapiens, UniProt P37231).
T1 sequence (P37231 whole entry): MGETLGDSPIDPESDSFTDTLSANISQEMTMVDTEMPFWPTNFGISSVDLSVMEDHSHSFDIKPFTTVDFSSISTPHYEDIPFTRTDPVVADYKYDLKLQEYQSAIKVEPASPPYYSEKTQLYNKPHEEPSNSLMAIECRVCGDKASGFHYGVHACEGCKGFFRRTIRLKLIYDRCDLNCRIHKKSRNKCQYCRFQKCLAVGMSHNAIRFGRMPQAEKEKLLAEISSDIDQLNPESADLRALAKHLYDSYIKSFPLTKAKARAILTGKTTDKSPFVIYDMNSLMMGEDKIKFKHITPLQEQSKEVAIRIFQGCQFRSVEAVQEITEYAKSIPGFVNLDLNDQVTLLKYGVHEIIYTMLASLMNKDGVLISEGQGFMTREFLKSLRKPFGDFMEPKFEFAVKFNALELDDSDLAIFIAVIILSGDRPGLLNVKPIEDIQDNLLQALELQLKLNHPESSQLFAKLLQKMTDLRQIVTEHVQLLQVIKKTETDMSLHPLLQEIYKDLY
The data set can be described thus: Transactivation activity at Gal4 fused […] human PPARgamma LBD expressed in HEK293 cells after 24 hrs by luciferase reporter gene assay.

Data set [2] deals with T1, Peroxisome proliferator-activated receptor gamma. The data set can be described thus: Transrepression activity at human PPARgamma expressed in HEK293 cells assessed as inhibition of TNFalpha induced NF-kappaB promoter activity pretreated for 4 hrs followed by TNFalpha stimulation after 3 hrs by luciferase reporter gene assay.
Another data set has as its system HEK293. The data set can be described thus: Cytotoxicity against HEK293 cells harboring beta-galactosidase expression plasmid assessed as effect on beta-galactosidase activity. To be noted: human.
A short description of data set [3]: Inhibition of TNFalpha induced NF-kappaB (unknown origin) activation expressed in PPARgamma deficient HEK293 cells pretreated for 4 hrs followed by TNFalpha stimulation after 3 hrs by luciferase reporter gene assay. The following applies: Homo sapiens.

Compound `CCN(CCOc1ccc(CC2SC(=O)NC2=O)cc1)c1nc2ccccc2s1` (stereo unspecified) gave an EC50 in data set [1] of 0.052 µM. Besides, the IC50 in data set [2] worked out at 25 µM. Moreover, the Activity result in the data set with HEK293 is recorded as “Non-Toxic”.

`CCN(CCOc1ccc(/C=C2\SC(=O)NC2=O)cc1)c1ccccn1` yielded a 50% effective concentration (EC50) in data set [1] of 0.36 µM. Moreover, the concentration for half-maximal inhibition (IC50) in data set [2] stood at 15 µM. In addition, the Activity result with HEK293 was “Non-Toxic”.

In data set [1], `O=C1NC(=O)/C(=C/c2ccc(OCCNc3nc4ccccc4s3)cc2)S1` gave an EC50 of 0.053 µM. The half-inhibitory concentration (IC50) in data set [3] came to 29 µM; in data set [2], 14 µM. Also, in the data set on HEK293, the Activity entry was “Non-Toxic”.

As for `CN(CCOc1ccc(/C=C2\SC(=O)NC2=O)cc1)c1ccc2ccccc2c1`, the EC50 in data set [1] is 1.6 µM. In addition, the half-inhibitory concentration (IC50) in data set [2] was found to be 40 µM. In addition, the Activity entry in the data set with HEK293 is reported as “Non-Toxic”.

Consider `CN(CCOc1ccc(CC2SC(=O)NC2=O)cc1)c1ccccn1` (stereo unspecified) [ROSIGLITAZONE], for which, in the data set with HEK293, the Activity result was “Non-Toxic”.

For the compound `CN(CCOc1ccc(/C=C2\SC(=O)NC2=O)cc1)c1nccs1`, the response in data set [1] was half-maximal at 0.7 µM (EC50). Also, the IC50 in data set [2] was 42 µM. Besides, the Activity result in the data set on HEK293 is given as “Non-Toxic”.

`CN(CCOc1ccc(CC2SC(=O)NC2=O)cc1)c1nc2ccccc2s1` (stereo unspecified): the response in data set [1] was half-maximal at 0.057 µM (EC50). In addition, in data set [2], the concentration for half-maximal inhibition (IC50) is 20 µM. For the same compound, the Activity entry in the data set on HEK293 is listed as “Non-Toxic”.

`CCc1ccc(CCOc2ccc(CC3SC(=O)NC3=O)cc2)nc1` (stereo unspecified) [PIOGLITAZONE]: in the data set with HEK293, the Activity result is recorded as “Non-Toxic”.

`CN(CCOc1ccc(/C=C2\SC(=O)NC2=O)cc1)c1nc2ccccc2[nH]1` showed a half-maximal effective concentration (EC50) in data set [1] of 3.4 µM. In data set [2], the IC50 worked out at 38 µM. The Activity result with HEK293 was “Non-Toxic”.

In the case of `CN(CCOc1ccc(/C=C2\SC(=O)NC2=O)cc1)c1nc2ccccc2s1`, the EC50 in data set [1] turned out to be 0.31 µM. Besides, in data set [2], the IC50 came to 13 µM. Further, the Activity entry in the data set with HEK293 is “Non-Toxic”.

In data set [1], `CCN(CCOc1ccc(/C=C2\SC(=O)NC2=O)cc1)c1nc2ccccc2s1` registered a half-maximal effective concentration (EC50) of 0.82 µM. The half-inhibitory concentration (IC50) in data set [2] stood at 17 µM. The Activity entry in the data set with HEK293 is on record as “Non-Toxic”.

Regarding `CC(C)N(CCOc1ccc(CC2SC(=O)NC2=O)cc1)c1nc2ccccc2s1` (stereo unspecified), in data set [1], the EC50 was 0.53 µM. Also, the IC50 in data set [2] is 20 µM. Besides, in the data set with HEK293, the Activity entry is recorded as “Non-Toxic”.

`CCN(CCOc1ccc(CC2SC(=O)NC2=O)cc1)c1ccccn1` (stereo unspecified) came in with a concentration for a half-maximal effect (EC50) in data set [1] of 0.54 µM. The half-maximal inhibitory concentration (IC50) in data set [2] was found to be 21 µM. In the data set with HEK293, the Activity result is reported as “Non-Toxic”.
